Experimental data reported in US8821864B2, “Compounds and methods useful for detection and treatment of cancer” (Roche MTM Laboratories AG, priority 2002, dated 2014).

Tested on: HLA-A2.1 expressing cell lines presenting frameshift peptides
Experiment: Cytotoxicity assay of CTL directed against cells displaying frameshift peptides
Type: cell-based, human
Conditions: cold targets: T2 cells pulsed with peptide, inhibitor:target ratio 50:1
Experimental: (FSP02); The antigen specificity of the FSP02 CTL line was tested in the presence of unlabeled cold targets, T2 cells pulsed with FSP02 (open squares) at an inhibitor:target ratio of 50:1. Lysis without cold targets is shown as a control (closed squares). All data are shown as the mean and standard deviation from 3 replicate wells. For experimental details see example 6.
(FSP06); The antigen specificity of the FSP06 CTL line was tested in the presence of unlabeled cold targets, T2 cells pulsed either with FSP06 (open squares) at an inhibitor:target ratio of 50:1. Lysis without cold targets is shown as a control (closed squares). All data are shown as the mean and standard deviation from 3 replicate wells. For experimental details see example 6.
CTL bulk cultures and/or CTL clones obtained according to the method described in Example 1 were tested for their cytotoxicity as follows:
Due to the limited amount of cell material clones were in some experiments pooled for the determination of the cytotoxicity. […]

Sequence | lysis of target cells by FSP CTL line (antigen specificity)
RLSSCVPVA [FSP02, frameshift peptide from TGF-betaRII (−1), start amino acid 131] | Frameshift peptide specific and HLA-A2-restricted lysis of target cells
SLYKFSPFPL [FSP06, frameshift peptide from OGT (−1), start amino acid 128] | Frameshift peptide specific and HLA-A2-restricted lysis of target cells
